Source: patent US20260217688A1, “INHIBITORS OF JAK2” (Llydaw Therapeutics, Inc., priority 2022, published 2026)
pEC50: −log10 of the molar value.

How the values were obtained:
[1] = target: T1, JAK2 JH2 (Homo sapiens, UniProt O60674); experiment: JAK2 JH2 TR-FRET Assay; assay type: binding; details: JAK2 JH2 1 nM, Tracer ZE84-0003 10 nM
T1 construct: Enzyme: JAK2 JH2, His-Avi-Tag, Biotin-Labeled (BPS Bioscience, Cat #79074) 1 nM; His; purchased BPS Bioscience 79074
Description: Assay Buffer 1×: • 20 mM HEPES pH 7.2-7.4; • 10 mM MgCl2; • 0.015% Brij-35; • 2 mM DTT; • 0.05 mg/ml BSA.
Final assay concentrations: • DMSO: 0.25%; • Streptavidin Tb-cryptate (Cisbio, Cat #610SATLB) 0.2 nM; • Enzyme: JAK2 JH2, His-Avi-Tag, Biotin-Labeled (BPS Bioscience, Cat #79074) 1 nM; • Probe: Tracer ZE84-0003 (ChemRar) 10 nM.
Materials: • Reaction plate: ProxiPlate-384 Plus White Plate (PerkinElmer); • Dilution plate: Diamond Well Plate (Axygen, Cat #P-384-120 SQ-C-S); • Compounds plate: Diamond Well Plate (Axygen, Cat #P-384-120 SQ-C-S).
Assay protocol: • 1. Prepare 400× solutions of compounds in DMSO into Compounds plate; • 2. Prepare Dilution plate: add 39 μL of 1× Assay buffer per well of Dilution plate; • 3. Prepare 2×Tb-cryptate mix in 1× Assay buffer. Add 10 μL of 2×Tb-cryptate mix to K-(Tb-cryptate and Probe without Enzyme) wells and blank (Tb-cryptate without Probe and Enzyme) wells; • 4. Add JAK2 JH2 into the rest of 2×Tb-cryptate mix to make 2×JAK2 JH2+Tb-cryptate mix. Add 10 μL per well into Reaction plate; • 5. Centrifuge plate at 200 g for 1 min; • 6. Dilute 1 μL of 400× compounds in 39 μL 1× Assay buffer in Dilution plate; • 7. Add 2 μL of 10× compounds from Dilution plate to Reaction plate with 10 μL of JAK2 JH2+Tb-cryptate mix; • 8. Centrifuge plate at 200 g for 1 min; • 9. Pre-incubate Reaction plate with compounds 15 min; • 10. Prepare 2.5× Tracer mix; • 11. Add 8 μL of 2.5× Tracer mix into appropriate wells of Reaction plate; • 12. Centrifuge plate at 800 g for 3 min; • 13. Incubate at rt for 15 min; • 14. Measure Fluorescence using Microplate Reader (Ex: TR, Em1/Em2: 482/520). The results of this assay are shown in the Table B. The values of EC50 shown as a letters A-D, where: A≤0.01 μM; 0.01 μM<B≤0.05 μM; 0.05 μM<C≤0.1 μM; D>0.1.

[2] = Proliferation inhibition assay (CellTiter-Glo), Ba/F3 JAK2 wt; assay type: cell-based; details: mouse, Ba/F3 (JAK2 wt) cells, with 10 ng/ml rmIL-3, 72 h; read-out: Ba/F3 JAK2 wt + IL3, CC50 3 days
Description: (§1) Ba/F3 (JAK2 wt) (ABM, T3076) cells and Ba/F3 (JAK2 V617F) (WuXi AppTec) cells were grown in RPMI-1640 (Gibco, cat. number 21870) supplemented with 10% FBS (Hyclone Laboratories Inc, Cat #SV30160.03), 1× Antibiotic-antimycotic (Gibco, Cat #15240-062), 2× Sodium pyruvate (Paneco, cat #F023), 2× Essential amino acids (Paneco, cat #F115/100), 1× Non-Essential amino acids (Paneco, cat #F116) at 37° C. in 5% CO2 atmosphere.
(§2) For the proliferation inhibition assay Ba/F3 (JAK2 wt) and Ba/F3 (JAK2 V617F) cells were seeded into a CellBIND® 384-well Flat Clear Bottom Black Polystyrene Microplates (Corning, USA, Cat #3770) at a density of 4000 cells per well in complete culture medium with or without 10 ng/ml rmIL-3 (RD systems, USA, Cat #403-ML-025) using Biomek FX/NX (384) liquid handler, 45 μl of cell suspension in complete culture medium per well. 500× compound's stocks in DMSO (Sigma Cat #D2650) were prepared in compounds plate (Diamond Well Plate, Axigen, Cat #P-384-120 SQ-C-S) applying Biomek 2000. 1 μl of 500× compounds stock was added to 49 μl of complete culture medium into Dilution plate (Diamond Well Plate, Axigen, Cat #P-384-120 SQ-C-S), mixed and then 5 μl of 10× compounds solution was transferred to cells using Biomek FX/NX (384) liquid handler. The centrifugation at 100 g for 1 min at Eppendorf 5810 followed. Final DMSO concentration in assay was 0.2%. All treatments were performed in technical and biological duplicates. Treated cells were incubated for 72 h at 37° C. with 5% CO2.
(§3) After 3 days of incubation, CellTiter-Glo Luminescent Cell Viability Assay (Promega) was performed. 10 μl of CellTiter-Glo (Promega, CAT #G7572) was added to the cells using Biomek FX/NX (384) liquid handler. The assay plate was centrifuged at 100 g for 1 min and luminescence signal was measured using Microplate Reader (CLARIOStar).

[3] = tested on: Ba/F3 (JAK2 V617F) cells; experiment: Proliferation inhibition assay (CellTiter-Glo), Ba/F3 JAK2 V617F; assay type: cell-based; details: Mus musculus, BaF3; without IL3, 72 h; read-out: Ba/F3 JAK2 V617F, CC50 3 days
Description: as §1, §2, §3

T1 sequence (O60674 545-809 limits assumed): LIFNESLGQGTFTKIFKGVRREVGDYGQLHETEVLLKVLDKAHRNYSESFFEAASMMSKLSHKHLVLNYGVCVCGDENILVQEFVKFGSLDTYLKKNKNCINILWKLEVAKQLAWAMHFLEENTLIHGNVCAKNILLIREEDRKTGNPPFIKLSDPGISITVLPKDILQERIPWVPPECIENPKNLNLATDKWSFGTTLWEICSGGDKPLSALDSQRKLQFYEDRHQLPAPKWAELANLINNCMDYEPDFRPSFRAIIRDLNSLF

Question: With `COc1c(Nc2nc(Nc3cnn(CCN(C)C)c3)ncc2C(N)=O)cccc1-c1ncn(C)n1` [Compound 5, 2-((1-(2-(dimethylamino)ethyl)-1H-pyrazol-4-yl)amino)-4-((2-methoxy-3-(1-methyl-1H-1,2,4-triazol-3-yl)phenyl)amino)pyrimidine-5-carboxamide] as the compound, how does the pEC50 [1] read?
Answer: 7.30 to 8.00

Question: With `COc1c(Nc2nc(Nc3cn(C)nc3C)ncc2C(N)=O)cccc1-c1ncn(C)n1` [Compound 13, 2-[(1,3-dimethylpyrazol-4-yl)amino]-4-[2-methoxy-3-(1-methyl-1,2,4-triazol-3-yl)anilino]pyrimidine-5-carboxamide] as the compound, how does the pEC50 [1] read?
Answer: < 7.00

Question: With `CCCn1nc(C)c(Nc2ncc(C(N)=O)c(Nc3cccc(-c4ncn(C)n4)c3OC)n2)c1C` [Compound 19, 2-[(3,5-dimethyl-1-propyl-pyrazol-4-yl)amino]-4-[2-methoxy-3-(1-methyl-1,2,4-triazol-3-yl)anilino]pyrimidine-5-carboxamide] as the compound, how does the pEC50 [1] read?
Answer: < 7.00

Question: With `COc1c(Nc2nc(Nc3c(C)nn(C(C)C)c3C)ncc2C(N)=O)cccc1-c1ncn(C)n1` [Compound 20, 2-[(1-isopropyl-3,5-dimethyl-pyrazol-4-yl)amino]-4-[2-methoxy-3-(1-methyl-1,2,4-triazol-3-yl)anilino]pyrimidine-5-carboxamide] as the compound, how does the pEC50 [1] read?
Answer: < 7.00

Question: With `COc1c(Nc2nc(Nc3cnn(CC45CC6CC(CC(C6)C4)C5)c3)ncc2C(N)=O)cccc1-c1ncn(C)n1` [Compound 23, 2-[[1-(1-adamantylmethyl)pyrazol-4-yl]amino]-4-[2-methoxy-3-(1-methyl-1,2,4-triazol-3-yl)anilino]pyrimidine-5-carboxamide] as the compound, how does the pEC50 [1] read?
Answer: < 7.00

Question: With `CCCCCCCCn1cc(Nc2ncc(C(N)=O)c(Nc3cccc(-c4ncn(C)n4)c3OC)n2)cn1` [Compound 25, 4-[2-methoxy-3-(1-methyl-1,2,4-triazol-3-yl)anilino]-2-[(1-octylpyrazol-4-yl)amino]pyrimidine-5-carboxamide] as the compound, how does the pEC50 [1] read?
Answer: < 7.00

Question: With `COc1c(Nc2nc(Nc3cnn(CCC4CCCCN4C)c3)ncc2C(N)=O)cccc1-c1ncn(C)n1` (stereo not drawn) [Compound 27, 4-[2-methoxy-3-(1-methyl-1,2,4-triazol-3-yl)anilino]-2-[[1-[2-(1-methyl-2-piperidyl)ethyl]pyrazol-4-yl]amino]pyrimidine-5-carboxamide] as the compound, how does the pEC50 [1] read?
Answer: < 7.00

Question: With `COc1c(Nc2nc(Nc3cnn(C(C)C)c3)ncc2C(=O)N(C)C)cccc1-c1ncn(C)n1` [Compound 31, 2-[(1-Isopropyl-1H-pyrazol-4-yl)amino]-4-{[2-methoxy-3-(1-methyl-1H-1,2,4-triazol-3-yl)phenyl]amino}-N,N-dimethylpyrimidine-5-carboxamide] as the compound, how does the pEC50 [1] read?
Answer: < 7.00

Question: With `COc1c(Nc2nc(Nc3cnn(C4CCN(C)CC4)c3)ncc2C(N)=O)cccc1-c1nc2ccccc2o1` [Compound 32, 4-[3-(1,3-benzoxazol-2-yl)-2-methoxy-anilino]-2-[[1-(1-methyl-4-piperidyl)pyrazol-4-yl]amino]pyrimidine-5-carboxamide] as the compound, how does the CC50 at 72 h [2] read?
Answer: 1 to 5 µM

Question: And the pEC50 [1]?
Answer: 7.30 to 8.00

Question: And the CC50 [3]?
Answer: 0.5 to 1 µM

Question: What does the source list for `COc1c(Nc2nc(Nc3cnn(C4CCN(C(C)C)CC4)c3)ncc2C(N)=O)cccc1-c1nc2ccccc2o1` [Compound 33, 4-[3-(1,3-benzoxazol-2-yl)-2-methoxy-anilino]-2-[[1-(1-isopropyl-4-piperidyl)pyrazol-4-yl]amino]pyrimidine-5-carboxamide]?
Answer: CC50 at 72 h [2]: 1 to 5 µM; pEC50 [1]: 7.30 to 8.00; CC50 [3]: ≤ 0.5 µM

Question: With `COc1c(Nc2nc(Nc3cnn(CCN(CC(C)C)CC(C)C)c3)ncc2C(N)=O)cccc1-c1nc2ccccc2o1` [Compound 34] as the compound, how does the CC50 at 72 h [2] read?
Answer: 5 to 10 µM

Question: And the pEC50 [1]?
Answer: < 7.00

Question: And the CC50 [3]?
Answer: 1 to 5 µM

Question: What does the source list for `COc1c(Nc2nc(Nc3cnn(C4CCN(C(C)C)CC4)c3)ncc2C(N)=O)cccc1-c1ncn(C)n1` [Compound 35, 2-[[1-(1-isopropyl-4-piperidyl)pyrazol-4-yl]amino]-4-[2-methoxy-3-(1-methyl-1,2,4-triazol-3-yl)anilino]pyrimidine-5-carboxamide]?
Answer: CC50 at 72 h [2]: > 10 µM; pEC50 [1]: 7.30 to 8.00; CC50 [3]: 1 to 5 µM

Question: Which CC50 at 72 h [2] does the source give for `COc1c(Nc2nc(Nc3cnn(C)c3)ncc2C(N)=O)cccc1-c1cccnc1` [Compound 36, 4-[2-methoxy-3-(3-pyridyl)anilino]-2-[(1-methylpyrazol-4-yl)amino]pyrimidine-5-carboxamide] here?
Answer: > 10 µM

Question: What about the pEC50 [1] of the same compound?
Answer: 7.30 to 8.00

Question: What about the CC50 [3] of the same compound?
Answer: > 10 µM

Question: Which results are given for `COc1c(Nc2nc(Nc3cnn(C)c3)ncc2C(N)=O)cccc1-c1ccncc1` [Compound 37, 4-[2-methoxy-3-(4-pyridyl)anilino]-2-[(1-methylpyrazol-4-yl)amino]pyrimidine-5-carboxamide]?
Answer: CC50 at 72 h [2]: 5 to 10 µM; pEC50 [1]: 7.30 to 8.00; CC50 [3]: 5 to 10 µM

Question: With `COc1c(Nc2nc(Nc3cnn(C(C)C)c3)ncc2C(N)=O)cccc1-c1ccccn1` [Compound 38, 2-[(1-isopropylpyrazol-4-yl)amino]-4-[2-methoxy-3-(2-pyridyl)anilino]pyrimidine-5-carboxamide] as the compound, how does the CC50 at 72 h [2] read?
Answer: 5 to 10 µM

Question: And the pEC50 [1]?
Answer: 7.30 to 8.00

Question: And the CC50 [3]?
Answer: ≤ 0.5 µM

Question: Which CC50 at 72 h [2] does the source give for `COc1c(Nc2nc(Nc3cnn(C4CCCCC4)c3)ncc2C(N)=O)cccc1-c1ccccn1` [Compound 39, 2-[(1-cyclohexylpyrazol-4-yl)amino]-4-[2-methoxy-3-(2-pyridyl)anilino]pyrimidine-5-carboxamide] here?
Answer: 5 to 10 µM

Question: And the pEC50 [1]?
Answer: 7.00 to 7.30

Question: And the CC50 [3]?
Answer: ≤ 0.5 µM

Question: With `COc1c(Nc2nc(Nc3cnn(C4CCOCC4)c3)ncc2C(N)=O)cccc1-c1ccccn1` [Compound 40, 4-[2-methoxy-3-(2-pyridyl)anilino]-2-[(1-tetrahydropyran-4-ylpyrazol-4-yl)amino]pyrimidine-5-carboxamide] as the compound, how does the CC50 at 72 h [2] read?
Answer: 5 to 10 µM

Question: What about the pEC50 [1] of the same compound?
Answer: 7.30 to 8.00

Question: And the CC50 [3]?
Answer: ≤ 0.5 µM

Question: Which results are given for `COc1c(Nc2nc(Nc3cnn(C45CC6CC(CC(C6)C4)C5)c3)ncc2C(N)=O)cccc1-c1ccccn1` [Compound 41, 2-[[1-(1-adamantyl)pyrazol-4-yl]amino]-4-[2-methoxy-3-(2-pyridyl)anilino]pyrimidine-5-carboxamide]?
Answer: CC50 at 72 h [2]: 5 to 10 µM; pEC50 [1]: < 7.00; CC50 [3]: 1 to 5 µM

Question: Which results are given for `COc1c(Nc2nc(Nc3cnn(CC(C)C)c3)ncc2C(N)=O)cccc1-c1ncn(C)n1` [Compound 58, 2-[(1-isobutylpyrazol-4-yl)amino]-4-[2-methoxy-3-(1-methyl-1,2,4-triazol-3-yl)anilino]pyrimidine-5-carboxamide]?
Answer: CC50 at 72 h [2]: 1 to 5 µM; CC50 [3]: 0.5 to 1 µM

Question: Which results are given for `COc1c(Nc2nc(Nc3cnn(CC(F)(F)F)c3)ncc2C(N)=O)cccc1-c1ncn(C)n1` [Compound 59]?
Answer: CC50 at 72 h [2]: 5 to 10 µM; CC50 [3]: 1 to 5 µM
